Measurements reported in PubChem BioAssay (NCI).
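How tested: cells in 96-well plates exposed to compound for 48 hours at five concentrations. The concentration for full growth arrest is given as TGI.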

Legend:
Test in all cases: NCI anticancer screen, dose series, 48 h
[1] = tested on: NCI-H226 lung
[2] = tested on: DLD-1 colon
[3] = tested on: RXF 393 renal
[4] = tested on: LXFL 529 NSCLC
[5] = tested on: K-562 leukemia
[6] = tested on: RPMI-8226 leukemia
[7] = tested on: MOLT-4 leukemia
[8] = tested on: NCI-H23 lung
[9] = tested on: HCT-15 colon
[10] = tested on: HL-60(TB) leukemia
[11] = tested on: ACHN renal
[12] = tested on: UO-31 renal
[13] = tested on: IGROV1 ovarian
[14] = tested on: A549 NSCLC
[15] = tested on: SK-MEL-5 melanoma
[16] = tested on: EKVX NSCLC
[17] = tested on: HOP-92 NSCLC
[18] = tested on: HT29 colon
[19] = tested on: M14 melanoma
[20] = tested on: SNB-75 CNS
[21] = tested on: COLO 205 colon
[22] = tested on: OVCAR-8 ovarian
[23] = tested on: HCT-116 colon
[24] = tested on: SK-OV-3 ovarian
[25] = tested on: SR leukemia
[26] = tested on: CAKI-1 renal
[27] = tested on: SW-620 colon
[28] = tested on: RXF-631 renal
[29] = tested on: NCI-H522 lung
[30] = tested on: UACC-62 melanoma
[31] = tested on: HOP-62 NSCLC
[32] = tested on: LOX IMVI melanoma
[33] = tested on: OVCAR-4 ovarian
[34] = tested on: SK-MEL-2 melanoma
[35] = tested on: KM12 colon
[36] = tested on: HOP-18 NSCLC
[37] = tested on: HCC-2998 colon
[38] = tested on: U251 CNS
[39] = tested on: XF 498 CNS
[40] = tested on: UACC-257 melanoma
[41] = tested on: DMS 273 small cell lung
[42] = tested on: NCI-H460 lung
[43] = tested on: 786-0 renal
[44] = tested on: M19-MEL melanoma
[45] = tested on: SF-539 CNS
[46] = tested on: CCRF-CEM leukemia
[47] = tested on: OVCAR-5 ovarian
[48] = tested on: TK-10 renal
[49] = tested on: SN12C renal
[50] = tested on: SF-295 CNS
[51] = tested on: A498 renal
[52] = tested on: SK-MEL-28 melanoma
[53] = tested on: DMS 114 small cell lung
[54] = tested on: KM20L2 colon
[55] = tested on: OVCAR-3 ovarian
[56] = tested on: MALME-3M melanoma
[57] = tested on: SNB-78 CNS
[58] = tested on: SNB-19 CNS
[59] = tested on: SF-268 CNS

## Clc1ccc2nc(CCSCCc3nc4ccc(Cl)cc4[nH]3)[nH]c2c1
[1]
  TGI: 41.8 µM
[2]
  TGI: 33.8 µM
[3]
  TGI: 38.6 µM
[4]
  TGI: 19 µM
[5]
  TGI: 38.3 µM
[6]
  TGI: 13.5 µM
[7]
  TGI: 18.1 µM
[8]
  TGI: 31.3 µM
[9]
  TGI: 26.5 µM
[10]
  TGI: 8.09 µM
[11]
  TGI: 11.4 µM
[12]
  TGI: 24.7 µM
[13]
  TGI: 25.4 µM
[14]
  TGI: 24.9 µM
[15]
  TGI: 18.4 µM
[16]
  TGI: 31.3 µM
[17]
  TGI: 30.6 µM
[18]
  TGI: 24.1 µM
[19]
  TGI: 26.5 µM
[20]
  TGI: 34.5 µM
[21]
  TGI: 29 µM
[22]
  TGI: 28 µM
[23]
  TGI: 19.3 µM
[24]
  TGI: 34.2 µM
[25]
  TGI: 1.14 µM
[26]
  TGI: 20.2 µM
[27]
  TGI: 27 µM
[28]
  TGI: 21.6 µM
[29]
  TGI: 26.5 µM
[30]
  TGI: 19.2 µM
[31]
  TGI: 34.1 µM
[32]
  TGI: 40.4 µM
[33]
  TGI: 28.5 µM
[34]
  TGI: 28.8 µM
[35]
  TGI: 29.7 µM
[36]
  TGI: 37 µM
[37]
  TGI: 31.7 µM
[38]
  TGI: 26.8 µM
[39]
  TGI: 27.5 µM
[40]
  TGI: 26.3 µM
[41]
  TGI: 29 µM
[42]
  TGI: 31.7 µM
[43]
  TGI: 26.3 µM
[44]
  TGI: 27.4 µM
[45]
  TGI: 32.7 µM
[46]
  TGI: 41.6 µM
[47]
  TGI: 25.2 µM
[48]
  TGI: 22.1 µM
[49]
  TGI: 30.3 µM
[50]
  TGI: 20.2 µM

## Cc1cc(C)n(-c2c(O)ccc(O)c2-n2nc(C)cc2C)n1
[2]
  TGI: > 100 µM
[51]
  TGI: > 100 µM
[3]
  TGI: > 100 µM
[52]
  TGI: > 100 µM
[4]
  TGI: > 100 µM
[5]
  TGI: > 100 µM
[53]
  TGI: > 100 µM
[6]
  TGI: > 100 µM
[7]
  TGI: > 100 µM
[8]
  TGI: > 100 µM
[9]
  TGI: > 100 µM
[10]
  TGI: > 100 µM
[11]
  TGI: > 100 µM
[12]
  TGI: > 100 µM
[13]
  TGI: > 100 µM
[54]
  TGI: > 100 µM
[14]
  TGI: > 100 µM
[15]
  TGI: > 100 µM
[16]
  TGI: > 100 µM
[17]
  TGI: > 100 µM
[18]
  TGI: > 100 µM
[19]
  TGI: > 100 µM
[20]
  TGI: > 100 µM
[21]
  TGI: > 100 µM
[22]
  TGI: > 100 µM
[24]
  TGI: > 100 µM
[26]
  TGI: > 100 µM
[27]
  TGI: > 100 µM
[28]
  TGI: > 100 µM
[29]
  TGI: > 100 µM
[30]
  TGI: > 100 µM
[55]
  TGI: > 100 µM
[56]
  TGI: > 100 µM
[31]
  TGI: > 100 µM
[32]
  TGI: > 100 µM
[33]
  TGI: > 100 µM
[57]
  TGI: > 100 µM
[34]
  TGI: > 100 µM
[35]
  TGI: > 100 µM
[58]
  TGI: > 100 µM
[37]
  TGI: > 100 µM
[38]
  TGI: > 100 µM
[39]
  TGI: > 100 µM
[41]
  TGI: > 100 µM
[42]
  TGI: > 100 µM
[43]
  TGI: > 100 µM
[44]
  TGI: > 100 µM
[45]
  TGI: > 100 µM
[46]
  TGI: > 100 µM
[47]
  TGI: > 100 µM
[59]
  TGI: > 100 µM
[48]
  TGI: > 100 µM
[49]
  TGI: > 100 µM
[50]
  TGI: > 100 µM
